# Test results: patent US5140015A, “2-aralkoxy and 2-alkoxy adenosine derivatives as coronary vasodilators and antihypertensive agents” (Whitby Research, Inc., priority 1990, dated 1992)
# Read-outs that look alike come from different tables or passages of the source.
# Key:
# Set-up in all cases: species or system guinea pig (female Sprague-Dawley)
# [1] = biological target: T1, A2 receptor of the coronary artery (Cavia porcellus, UniProt P46616); experiment: Coronary flow increase in isolated perfused heart (Langendorff preparation)
# T1 construct: perfused hearts from female Sprague-Dawley guinea pigs in an isolated Langendorff heart preparation; from tissue; host or cells: isolated perfused guinea pig heart (Langendorff), coronary vasculature
# T1 sequence (P46616 whole entry, the tested form may be a part): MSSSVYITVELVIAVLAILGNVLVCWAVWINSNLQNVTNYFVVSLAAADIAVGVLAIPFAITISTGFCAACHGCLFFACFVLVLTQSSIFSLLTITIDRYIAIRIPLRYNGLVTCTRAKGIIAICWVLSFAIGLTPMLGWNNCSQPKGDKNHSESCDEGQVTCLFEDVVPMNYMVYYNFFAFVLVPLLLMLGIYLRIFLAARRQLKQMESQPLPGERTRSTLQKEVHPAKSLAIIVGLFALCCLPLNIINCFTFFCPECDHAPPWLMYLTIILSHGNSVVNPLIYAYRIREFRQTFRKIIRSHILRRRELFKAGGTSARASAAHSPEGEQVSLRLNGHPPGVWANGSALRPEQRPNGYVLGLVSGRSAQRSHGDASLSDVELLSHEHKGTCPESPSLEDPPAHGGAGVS
# Protocol: (§1) Assays of the cardiovascular potency of the above compounds at the A1 receptors of the SA node and at the A2 receptor of the coronary artery employed perfused hearts from female Sprague-Dawley guinea pigs in an isolated Langendorff heart preparation. An assay consists of an infusion of a spectophotometrically standardized solution of test compound directly into the aortic cannula at rates increasing stepwise every 5 minutes. Collection of the total cardiac effluent during the first half of each infusion period provides a measure of coronary flow (A2 effect). The concentration of test compound required to produce a half-maximal increase in coronary flow is determined. Registration of the ECG assesses the effect of the test compound on SA node (stimulus to Q interval, A1 effect). The concentration of test compound required to produce a half-maximal prolongation of stimulus to Q interval is determined. […] The ratio of A1 and A2 effects of test compounds are calculated to provide the selectivity ratio.
# [2] = biological target: T2, A1 receptors of the SA node (Cavia porcellus, UniProt P47745); experiment: SQ (stimulus to Q interval) prolongation in isolated perfused heart (Langendorff preparation); conditions: isolated perfused guinea pig heart; concentration for half-maximal prolongation of stimulus to Q interval; read-out: SQ Prolongation (A1) ED50
# T2 construct: perfused hearts from female Sprague-Dawley guinea pigs in an isolated Langendorff heart preparation; from tissue; host or cells: isolated perfused guinea pig heart (Langendorff), nodal tissue
# T2 sequence (P47745 1-326): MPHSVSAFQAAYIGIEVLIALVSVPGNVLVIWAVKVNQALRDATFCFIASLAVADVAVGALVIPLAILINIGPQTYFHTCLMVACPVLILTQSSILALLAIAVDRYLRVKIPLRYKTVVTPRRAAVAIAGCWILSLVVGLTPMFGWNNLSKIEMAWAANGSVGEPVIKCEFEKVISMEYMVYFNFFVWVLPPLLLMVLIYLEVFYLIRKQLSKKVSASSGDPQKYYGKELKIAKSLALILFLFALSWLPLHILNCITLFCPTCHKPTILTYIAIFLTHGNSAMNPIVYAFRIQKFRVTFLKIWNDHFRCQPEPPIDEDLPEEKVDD
# Protocol: as §1
# [3] = system: A2 receptor of the coronary artery; experiment: Coronary flow increase in isolated perfused heart (Langendorff preparation); conditions: ratio of A1 (SQ prolongation) and A2 (coronary flow) effects
# Protocol: as §1
# [4] = isolated perfused guinea pig heart, concentration for half-maximal increase in coronary flow, stepwise infusion every 5 minutes, read-out: Coronary Blood Flow Increase (A2) EC50
SMILES,"EC50 [1, 4] [nM]",EC50 [2] [µM],also measured
"Nc1nc(OCCCc2ccccc2)nc2c1ncn2[C@@H]1O[C@H](CO)[C@@H](O)[C@H]1O [Example 1, 2-(3-phenyl-1-propoxy)adenosine]",61.3,,
"Nc1nc(OC2CCCC2)nc2c1ncn2[C@@H]1O[C@H](CO)[C@@H](O)[C@H]1O [Example 3, 2-Cyclopentyloxyadenosine]",91.7,79.4,
"Nc1nc(OCCC2CCCCC2)nc2c1ncn2[C@@H]1O[C@H](CO)[C@@H](O)[C@H]1O [Example 5, 2-(2-Cyclohexylethoxy)adenosine]",,8.63,
"Nc1nc(OCc2ccccc2)nc2c1ncn2[C@@H]1O[C@H](CO)[C@@H](O)[C@H]1O [Example 6, 2-benzyloxyadenosine]",419,,Selectivity (A1/A2) [3]: 15
"Nc1nc(OCCc2ccccc2)nc2c1ncn2[C@@H]1O[C@H](CO)[C@@H](O)[C@H]1O [Example 7, 2-(2-phenylethoxy)adenosine]",2.8,,
"COc1cccc(CCOc2nc(N)c3ncn([C@@H]4O[C@H](CO)[C@@H](O)[C@H]4O)c3n2)c1 [Example 9, 2-[2-(3-methoxyphenyl)ethoxy]adenosine]",2.6,,
"Nc1nc(OCCc2cccs2)nc2c1ncn2[C@@H]1O[C@H](CO)[C@@H](O)[C@H]1O [Example 13, 2-[2-(2-thienyl)ethoxy]adenosine]",,,EC50 [1]: 3.7 nM
CC[C@@H](COc1nc(N)c2ncn([C@@H]3O[C@H](CO)[C@@H](O)[C@H]3O)c2n1)c1ccccc1 [Example 18],,,Selectivity (A1/A2) [3]: 50
"CC[C@H](COc1nc(N)c2ncn([C@@H]3O[C@H](CO)[C@@H](O)[C@H]3O)c2n1)c1ccccc1 [Example 19, 2-[(2S)-phenyl-1-butoxy]adenosine]",31.4,27.4,
"Nc1nc(OCCCCc2ccccc2)nc2c1ncn2[C@@H]1O[C@H](CO)[C@@H](O)[C@H]1O [Example 20, 2-(4-phenyl-1-butoxy)adenosine]",,7.36,EC50 [1]: 9.9 nM

# More lines, main results first:
"EC50 [1, 4] [nM]",EC50 [2] [µM],SMILES,also measured
0.9,,"Nc1nc(OCCc2ccc(F)cc2)nc2c1ncn2[C@@H]1O[C@H](CO)[C@@H](O)[C@H]1O [Example 2, 2-[2-(4-fluorophenyl)ethoxy]adenosine]",
657,100,"Nc1nc(OC2CCCCC2)nc2c1ncn2[C@@H]1O[C@H](CO)[C@@H](O)[C@H]1O [Example 4, 2-Cyclohexyloxyadenosine]",
32,,"COc1ccccc1CCOc1nc(N)c2ncn([C@@H]3O[C@H](CO)[C@@H](O)[C@H]3O)c2n1 [Example 8, 2-[2-(2-methoxyphenyl)ethoxy]adenosine]",
1.4,,"COc1ccc(CCOc2nc(N)c3ncn([C@@H]4O[C@H](CO)[C@@H](O)[C@H]4O)c3n2)cc1 [Example 10, 2-[2-(4-methoxyphenyl)ethoxy]adenosine]",
3.8,,"Cc1ccccc1CCOc1nc(N)c2ncn([C@@H]3O[C@H](CO)[C@@H](O)[C@H]3O)c2n1 [Example 11, 2-[2-(2-methylphenyl)ethoxy]adenosine]",
22,,"COc1cc(CCOc2nc(N)c3ncn([C@@H]4O[C@H](CO)[C@@H](O)[C@H]4O)c3n2)cc(OC)c1OC [Example 12, 2-[2-(3,4,5-trimethoxyphenyl)ethoxy]adenosine]",
,18.8,"Nc1nc(OCCc2ccsc2)nc2c1ncn2[C@@H]1O[C@H](CO)[C@@H](O)[C@H]1O [Example 14, 2-[2-(3-thienyl)ethoxy]adenosine]",
9,53.1,"CC(COc1nc(N)c2ncn([C@@H]3O[C@H](CO)[C@@H](O)[C@H]3O)c2n1)c1ccccc1 (stereo partly drawn) [Example 17, 2-(2-phenyl-1-propoxy)adenosine]",
1.3,15,"CCNC(=O)[C@H]1O[C@@H](n2cnc3c(N)nc(OCCc4ccccc4)nc32)[C@H](O)[C@@H]1O [Example 22, 2-(2-phenyl)ethoxy-5'-N-ethylcarboxamidoadenosine]",
,3.76,"Nc1nc(OCCCC2CCCCC2)nc2c1ncn2[C@@H]1O[C@H](CO)[C@@H](O)[C@H]1O [Example 23, 2-(3-cyclohexyl)propoxyadenosine]",
